“Also recorded” adds a separate entry of the source.
Key:
[1] = target: T1, Serotonin Transporter (SERT) (Mus musculus, UniProt Q60857); test: Serotonin uptake by bone marrow cells; format: cell-based, murine
T1 construct: from tissue; host or cells: total bone marrow cells

[2] = tested on: Mouse medullary cells C57B1/6 expressing H4R; test: Percentage of cells at G0/G1 phase, TRQ racemate and enantiomers with and without CB (Example 21); format: cell-based
Method: This experiment was conducted at two concentrations for all TRQ molecules (10 μM and 1 μM) in the presence and absence of CB (10 μM).
Using the assay described in Example 15, above, the effect of TRQ or CB on cells expressing H4R was tested. Mouse medullary cells C57B1/6 expressing H4R (50,000 cells/Petri dish) were incubated in a semi-solid media with haematopoietic growth factors such as IL-3 (10 ng/ml) for 7 days with a TRQ (racemic mixture of RR and SS isomers at 1 μM and 10 μM concentration); purified TRQ isomer E1 (10 μM and 1 μM concentration); purified TRQ isomer E2 (10 μM and 1 μM concentration) and CB (10 μM concentration). […] Similar results were shown with the purified TRQ isomers. In each experiment cells were incubated in the presence of growth factors (GF, FIG. 15).

[3] = target: T2, Organic Cation Transporter-3 (OCT-3) (Mus musculus, UniProt Q9WTW5); test: Histamine uptake by bone marrow cells; format: cell-based, murine
T2 construct: from tissue; host or cells: total bone marrow cells
T2 sequence (Q9WTW5 1-551): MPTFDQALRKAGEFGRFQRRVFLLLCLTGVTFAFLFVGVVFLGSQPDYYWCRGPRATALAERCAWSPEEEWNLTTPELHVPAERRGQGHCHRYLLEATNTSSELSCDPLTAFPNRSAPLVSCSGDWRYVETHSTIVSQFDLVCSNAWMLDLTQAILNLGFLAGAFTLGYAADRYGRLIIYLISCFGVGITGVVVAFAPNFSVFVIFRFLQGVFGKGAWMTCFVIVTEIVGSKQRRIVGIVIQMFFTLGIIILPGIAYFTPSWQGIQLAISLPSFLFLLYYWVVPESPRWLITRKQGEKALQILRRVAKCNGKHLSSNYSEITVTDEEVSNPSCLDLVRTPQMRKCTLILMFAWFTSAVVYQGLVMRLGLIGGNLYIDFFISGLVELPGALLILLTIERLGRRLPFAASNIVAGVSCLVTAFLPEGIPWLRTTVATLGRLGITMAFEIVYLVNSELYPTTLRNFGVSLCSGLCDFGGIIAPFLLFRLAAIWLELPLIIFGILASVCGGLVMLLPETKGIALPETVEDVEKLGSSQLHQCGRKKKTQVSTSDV
Method: Cell cultures. Bone marrow (BM) cells were prepared as reported (Schneider, et al. J. Immunol. 139:3710-717) and adjusted to a final concentration of 2.5×10^6 per ml in culture medium (MEM) supplemented with 10% horse serum. Various doses (10^−5-10^−7 M) of Clobenpropit or Tritoqualine were added shortly before the addition of IL-3 (1 ng/ml), followed by a 24-h incubation at 37° C., 5% CO2.
Cytokine assays, measurement of histamine production, and uptake. IL-6 and IL-4 production was measured in cell supernatants recovered after a 24-h incubation. Histamine was quantified by an automated continuous flow spectrofluorometric technique (Schneider, et al. J. Immunol. 139:3710-717). For binding experiments, 10^6 total BM cells were plated in round-bottomed 96-well polypropylene plates (Costar). Unless stated otherwise, the cells were incubated (37° C., 5% CO2) for 3 h with 3 μCi/ml of [^3H]histamine dihydrochloride (2.5×10^−7 M; 12 Ci/mmol) in a final volume of 100 μl. Competition assays were performed as previously described (Corbel, S., et al. 1995. Blood. 86:531-539; Corbel, S., et al. 1995, FEBS Lett. 404:289-293). Each experiment was performed in triplicate, and histamine binding was calculated from total cpm after subtraction of nonspecific binding to filters.

[4] = tested on: Mouse medullary cells C57B1/6 expressing H4R; test: Proliferation of Colony Forming Cells (CFC) in semi-solid media; format: cell-based; settings: 7 days; for inhibitory activity of cell proliferation (CFC): Example 20
Method: Using the assay described in Example 15, above, the effect of TRQ or CB on cells expressing H4R was tested. Mouse medullary cells C57B1/6 expressing H4R (50,000 cells/Petri dish) were incubated in a semi-solid media with haematopoietic growth factors (IL-3: 10 ng/ml) for 7 days with TRQ or CB.
Using the assay described in Example 15, above, the effect of TRQ or CB on cells expressing H4R was tested. Mouse medullary cells C57B1/6 expressing H4R (50,000 cells/Petri dish) were incubated in a semi-solid media with haematopoietic growth factors (IL-3: 10 ng/ml) for 7 days with a TRQ (racemic mixture of RR and SS isomers at 1 μM and 10 μM concentration); TRQ isomer E1 (10 μM concentration); TRQ isomer E2 (10 μM concentration) and CB (10 μM concentration).

[5] = tested on: Mouse C57B1/6 Haematopoietic stem cells; test: G0/G1 cell cycle of sorted haematopoietic stem cells, 2 h incubation (Example 17); format: cell-based; settings: 2 hours incubation with growth factors
Method: Mouse C57B1/6 Haematopoietic stem cells were enriched with bone marrow cells by magnetic sorting. Only cells expressing surface tyrosine kinase were sorted. Cells were incubated for 2 hours with growth factors (IL-3 10 ng/ml, IL-6 10 ng/ml, SCF 50 ng/ml) and TRQ and its enantiomers, E1 and E2.
After 2 hours of incubation, cells were washed and incubated with […] for 30 minutes read by FACS scan.

[6] = 10 μM, compared to control (GF only)

T1 sequence (Q60857 whole entry): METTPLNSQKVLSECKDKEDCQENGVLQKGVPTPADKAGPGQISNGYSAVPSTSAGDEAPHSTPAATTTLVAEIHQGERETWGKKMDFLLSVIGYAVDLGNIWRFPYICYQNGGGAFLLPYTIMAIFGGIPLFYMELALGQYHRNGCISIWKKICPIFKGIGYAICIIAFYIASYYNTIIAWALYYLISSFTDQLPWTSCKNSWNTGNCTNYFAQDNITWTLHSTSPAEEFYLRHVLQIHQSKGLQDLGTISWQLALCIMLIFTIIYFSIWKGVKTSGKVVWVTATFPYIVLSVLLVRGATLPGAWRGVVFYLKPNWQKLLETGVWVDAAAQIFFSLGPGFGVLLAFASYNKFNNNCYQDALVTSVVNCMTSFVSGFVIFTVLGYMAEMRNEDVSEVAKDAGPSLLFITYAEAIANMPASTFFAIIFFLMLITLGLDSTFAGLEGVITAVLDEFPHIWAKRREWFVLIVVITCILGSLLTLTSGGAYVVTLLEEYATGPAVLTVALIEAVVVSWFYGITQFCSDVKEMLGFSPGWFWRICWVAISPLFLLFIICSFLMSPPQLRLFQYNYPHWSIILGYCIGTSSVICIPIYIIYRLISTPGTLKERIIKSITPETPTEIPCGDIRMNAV

Structure (SMILES) | effect on biogenic monoamine uptake by SERT ([1]; listed as TRQ) | percentage of cells at the G0/G1 phase / inhibitory activity of cell proliferation ([2]; 1 μM, listed as TRQ) | percentage of cells at the G0/G1 phase / inhibitory activity of cell proliferation ([2]; 1 μM, listed as racemic TRQ) | percentage of cells at the G0/G1 phase / inhibitory activity of cell proliferation [2, 6] | effect on biogenic monoamine uptake by OCT-3 ([3]; listed as TRQ) | inhibition of proliferation of CFC ([4]; Example 16, 10 μM, IL-3 10 ng/ml, listed as TRQ) | inhibitory activity of cell proliferation (CFC) ([4]; 1 μM) | inhibition of G0/G1 phase [5] | inhibition of serotonin uptake ([1]; 1 μM) | inhibition of serotonin uptake ([1]; 10 μM) | percentage of cells at the G0/G1 phase / inhibitory activity of cell proliferation ([2]; 1 μM) | inhibition of histamine uptake ([3]; 1 μM) | inhibition of histamine uptake ([3]; 10 μM) | inhibitory activity of cell proliferation (CFC) ([4]; 10 μM)
CCOc1c(N)c2c(c(OCC)c1OCC)C(C1c3c(cc4c(c3OC)OCO4)CCN1C)OC2=O (racemic) [Tritoqualine, 7-Amino-4,5,6-triethoxy-3-(5,6,7,8-tetrahydro-4-methoxy-6-methyl-1,3-dioxolo[4,5-g]isoquinolin-5-yl) phthalide] | do not significantly alter; also recorded: does not affect | also increased the percentage of cells at the G0/G1 phase | less inhibitory activity in comparison to 10 μM CB | also increased the percentage of cells at the G0/G1 phase | do not significantly alter; also recorded: does not affect | more potent inhibitor of cell proliferation than the Clobenpropit | less inhibitory activity in comparison to 10 μM CB | approximately 50% | – | – | – | – | – | –
CCOc1c(N)c2c(c(OCC)c1OCC)[C@H]([C@H]1c3c(cc4c(c3OC)OCO4)CCN1C)OC2=O [E1] | – | – | – | slightly more potent than isomer E2 | – | – | – | approximately 50% | negligible | greatly reduced | higher percentage of cells at the G0/G1 phase than the racemic TRQ | negligible | greatly reduced | slightly more potent than isomer E2
CCOc1c(N)c2c(c(OCC)c1OCC)[C@@H]([C@@H]1c3c(cc4c(c3OC)OCO4)CCN1C)OC2=O [E2] | – | – | – | exerted inhibitory activity of cell proliferation | – | – | – | 57% | negligible | greatly reduced | higher percentage of cells at the G0/G1 phase than the racemic TRQ | negligible | greatly reduced | exerted inhibitory activity of cell proliferation
